The test system of test [1] is hindquarters perfusion pressure. The test is described as follows: Vasodilator activity in autoperfused anaesthetised cat hind quarters. The following applies: Felis catus, iv, constant blood flow, i.v., read-out: ED15 (i.v. dose to decrease hindquarters perfusion pressure by 15%). In kind it is in vivo. The procedure: The compounds of the Examples were tested in autoperfused anaesthetised cat hind quarters (autoperfused at constant blood flow). The i.v. dose to decrease hindquarters perfusion pressure (vasodilatation) by 15% is given as the ED15.

In test [2] the target is PDE (Peak III). The test is described as follows: Inhibition of phosphodiesterase PDE (Peak III) from cat heart. The following applies: 1 μM cyclic AMP.
Procedure: The enzyme was assayed by incubation at 37° for 4-30 min in 50 mM Tris, 5 mM MgCl2, pH 7.5 with [3-H]cyclic nucleotide (4×10^5 disintegrations min^-1) and [14-C] nucleotide 5' monophosphate (3×10^3 disintegrations min^-1). […] The reaction mixture was diluted with 0.5 ml 100 mM HEPES (N-2-Hydroxyethylpiperazine-N'-2-ethanesulfonic acid), 100 mM NaCl, pH 8.5, and applied to the column. […] The recovery of product as judged by [14-C] recovery was approximately 80%. All assays were linear with time of incubation and concentration of enzyme over the range used in these experiments.
Test [3] relates to left ventricular contractility (left ventricular dp/dt max). The test is described as follows: Cardiac stimulant activity in vivo, left ventricular dp/dt max in anaesthetised cats. The following applies: Felis catus, iv, read-out: ED50 (dose to increase left ventricular dp/dt max by 50%), i.v., pretreated with pempidine and propranolol.
Test [4] deals with ventricular strips. Description: Cardiac stimulant activity in vitro, force of contraction of guinea pig ventricular strips. In kind it is cell-based, Guinea pigs. The following applies: Cavia porcellus, read-out: EC50 (50% increase in the force of contraction of the ventricular strips); concentration in bathing fluid. How it is done:
The compounds of formula (I) and their pharmaceutically acceptable salts are tested for cardiac stimulant activity following a procedure based on that of S. C. Verma and J. H. McNeill (J. Pharm. & Exp. Therapeutics, 200, 352-362 (1977)). Guinea pigs (500-700 g) of either sex are sacrificed and the hearts are quickly removed and transferred to a dissecting dish containing oxygenated bathing fluid. While in the bathing medium, the right ventricle is cut into two strips. The strips are each suspended in a 50 ml bath containing Krebs Henseleit solution at 37° C., and the bath is bubbled with 95% oxygen and 5% carbon dioxide. The ventricular strips are electrically stimulated at a frequency of 1.0 Hz, at double the threshold voltage. A resting tension of 1.0 g is applied to the strips and the tension is kept constant by readjustment during an equilibration period of 60 minutes. The bathing fluid is frequently changed during this period. When a steady base line is obtained, a compound under test is added to the bathing fluid and a cumulative concentration response curve is plotted.

Test [5] has as its system histamine-induced bronchoconstriction. The test is described as follows: Bronchodilatation in vivo, histamine-induced bronchoconstriction in anaesthetised guinea-pigs. Also noted: species or system Dunkin Hartley strain. The following applies: n=1. How it is done: Male guinea-pigs of the Dunkin Hartley strain (500-600 g) were anaesthetised with Sagatal (pentobarbital sodium) (60 mg/kg i.p.). Airway resistance was measured using a modification of the classical Konzett-Rossler technique (Versuchsanordnung zu Untersuchungen an der Bronchialmuskulatur. Naunyn-Schmiedebergs Arch. Exp. Path. Pharmak., 195: pp 71-74, (1940)). A dose of histamine which gave approximately 150% increase in airway resistance was selected for i.v. administration. Bolus doses of the compound of Example 6 were administered (i.v.) on minute before the histamine challenge (n=1).

One may read the IC50 as the concentration that gives 50% inhibition. High values mean weaker potency, low ones greater potency.

Turning to `O=c1ccc(-c2cccc(-c3ccc(=O)[nH]n3)c2)n[nH]1` [Example 5, 1,3-Bis(6-oxo-1,6-dihydropyridazin-3-yl)benzene], the ED15 in test [1] is 3.23 µmol/kg. In test [2], 3900 nM corresponded to half-maximal inhibition (IC50). Further, in test [3], the ED50 is 3.16 µmol/kg.

Turning to `O=c1ccc(-c2ccc(-c3ccc(=O)[nH]n3)cc2)n[nH]1` [Example 1, 1,4-Bis(6-oxo-1,6-dihydropyridazin-3-yl)benzene], the EC50 in test [4] came to 900 nM. The compound also displayed an IC50 in test [2] of 330 nM. In addition, the ED50 in test [3] turned out to be 0.04 µmol/kg.

As to `CC1CC(=O)NN=C1c1ccc(C2=NNC(=O)CC2C)cc1` (stereo not drawn) [Example 3, 1,4-Bis(4-methyl-6-oxo-1,4,5,6-tetrahydropyridazin-3-yl)benzene], in test [1], the ED15 amounted to 0.04 µmol/kg. Also, in test [2], the IC50 is 110 nM. The ED50 in test [3] amounted to 0.06 µmol/kg.

As to `Cc1cc(=O)[nH]nc1-c1ccc(-c2n[nH]c(=O)cc2C)cc1` [Example 4, 1,4-Bis(4-methyl-6-oxo-1,6-dihydropyridazin-3-yl)benzene], the IC50 in test [2] worked out at 37500 nM.

For `O=C1CCC(c2ccc(C3=NNC(=O)CC3)cc2)=NN1` [Example 2, 1,4-Bis(6-oxo-1,4,5,6-tetrahydropyridazin-3-yl)benzene], the ED15 in test [1] was 0.12 µmol/kg. The compound further had an IC50 in test [2] of 640 nM. Besides, in test [3], the ED50 was 0.55 µmol/kg.

On to `CC1CC(=O)NN=C1c1ccc(-c2ccc(=O)[nH]n2)cc1` (stereo not drawn) [Example 6, 6-[4-(4-Methyl-6-oxo-1,4,5,6-tetrahydropyridazin-3-yl)phenyl]pyridazin-3(2H)-one], for which, in test [1], the ED15 is 0.01 µmol/kg. Moreover, the ED50 in test [5] (Cavia porcellus, iv, read-out: ED50 (dose which would reduce the histamine bronchoconstriction by 50%), i.v. one minute before histamine challenge, calculated by interpolation) is 0.033 µmol/kg; in test [3], 0.02 µmol/kg. Further, the “effect on histamine-induced bronchoconstriction” value in test [5] (i.v., in words) is “reduced the histamine-induced bronchoconstriction”. In test [2], this compound came in with an IC50 of 70 nM.

The values are drawn from US4904664A, “Benzene compounds having two pyridazinone substituents” (Smith Kline & French Laboratories Limited, priority 1985, dated 1990).
